Assay [1] deals with Baculoviral IAP repeat-containing protein 2 (Homo sapiens) (UniProt Q13490). Briefly: Binding affinity to human BIR3 domain of cIAP1 at 150 uM after 30 mins by photoaffinity labeling assay in presence of (S)-2-((2S,3R)-3-Amino-2-hydroxy-4-phenyl-butyrylamino)-4-methyl-pentanoic acid methyl ester.
For assay [2] the target is unchanged. Briefly: Binding affinity to human BIR3 domain of cIAP1 by fluorescence polarization assay.
For assay [3] the target is unchanged. Description: Binding affinity to human BIR3 domain of cIAP1 by photoaffinity labeling assay in presence of (S)-2-((2S,3R)-3-Amino-2-hydroxy-4-phenyl-butyrylamino)-4-methyl-pentanoic acid methyl ester.

Molecules are shown by their SMILES. The source made the active and inactive calls. The rule behind the calls is not given here.

Sequence of Baculoviral IAP repeat-containing protein 2 (Homo sapiens) (Q13490 whole entry, looked up, the tested form may be a part): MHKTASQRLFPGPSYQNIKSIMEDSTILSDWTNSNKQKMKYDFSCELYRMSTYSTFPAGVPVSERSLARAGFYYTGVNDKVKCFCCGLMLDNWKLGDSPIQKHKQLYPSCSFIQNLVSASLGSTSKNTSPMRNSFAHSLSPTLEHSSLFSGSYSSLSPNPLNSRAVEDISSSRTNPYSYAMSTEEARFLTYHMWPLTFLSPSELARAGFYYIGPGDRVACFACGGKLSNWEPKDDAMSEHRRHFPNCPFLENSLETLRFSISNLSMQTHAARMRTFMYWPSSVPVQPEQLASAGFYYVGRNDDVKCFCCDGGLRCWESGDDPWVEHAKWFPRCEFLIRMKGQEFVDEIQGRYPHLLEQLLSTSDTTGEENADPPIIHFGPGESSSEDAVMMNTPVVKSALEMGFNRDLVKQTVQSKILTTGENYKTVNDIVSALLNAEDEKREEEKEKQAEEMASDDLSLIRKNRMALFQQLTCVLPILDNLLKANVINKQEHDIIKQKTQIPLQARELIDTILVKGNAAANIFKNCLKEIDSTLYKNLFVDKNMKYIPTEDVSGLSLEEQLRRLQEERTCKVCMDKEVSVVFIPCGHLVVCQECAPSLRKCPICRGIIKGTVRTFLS

For `CC(C)C[C@H](NC(=O)[C@@H](O)[C@H](N)Cc1ccccc1)C(=O)OCCNS(=O)(=O)c1cccc2c(N=[N+]=[N-])cccc12`, the result in assay [1] was Active.
Turning to `CC(C)C[C@H](NC(=O)[C@@H](O)[C@H](N)Cc1ccccc1)C(=O)OCCNS(=O)(=O)c1cccc2c(N(C)C)cccc12`, the outcome in assay [2] and in assay [3] was Active.

The values are drawn from ChEMBL document CHEMBL1150321.
